The source of these data is patent US20250195670A1, “METFORMIN NANOFORMULATIONS AND METHODS OF USE THEREOF” (priority 2022, published 2025).

The conditions of series [1]: oral metformin; cited from earlier work.
Another series has as its system Ln229 cells. Kind of series: Ln229 cell growth (optical density). To be noted: Homo sapiens, LN-229. It is filed as cell-based. The protocol: FIGS. 3A-3D provide graphs of Ln229 growth at the indicated concentrations of metformin (FIG. 3A), PAMAM-OH (FIG. 3B), PAMAM-OH and metformin (FIG. 3C), and P4-MET (FIG. 3D).
The ability of the dendrimers was also tested for their ability to deliver metformin to Ln229 cells, a human glioblastoma cell line sensitive to metformin. Specifically, Ln229 cells were exposed to metformin, PAMAM-OH, PAMAM-OH with metformin, or P4-MET.

In a further series the test system is cell cultures. The settings on record: cited from earlier work.
Series [2] concerns bone marrow-derived macrophages (BMDM). Kind of series: BMDM growth (optical density). The settings on record: Mus musculus; BMDM cells, 72 hours. It is filed as cell-based. The protocol: FIGS. 5A-5D provide graphs of bone marrow-derived macrophages (BMDM) growth at the indicated concentrations of metformin (FIG. 5A), PAMAM-OH (FIG. 5B), PAMAM-OH and metformin (FIG. 5C), and P4-MET (FIG. 5D).
The ability of the dendrimers was also tested for their ability to deliver metformin to bone marrow-derived macrophages (BMDM). Specifically, BMDM cells were exposed to metformin, PAMAM-OH, PAMAM-OH with metformin, or P4-MET for 72 hours.

The conditions of series [3]: in vivo; cited from earlier work.
In the next series the test system is Panc-1 cells. The series is described as follows: Panc-1 cell growth (optical density). It is filed as cell-based. The settings on record: Homo sapiens. The method, then: The ability of the dendrimers was also tested for their ability to deliver metformin to Panc-1 cells, a human pancreatic cancer cell line. Specifically, Panc-1 cells were exposed to metformin, PAMAM-OH, and P4-MET.

Another series has as its system UNKPC cells. Kind of series: UNKPC cell growth (optical density). The class given is cell-based. The protocol: The ability of the dendrimers was also tested for their ability to deliver metformin to UNKPC cells, a pancreatic cancer cell line. Specifically, […] were exposed to metformin, PAMAM-OH, or P4-MET.
A further series relates to MGPP3 cells. Kind of series: MGPP3 cell growth (optical density). The class given is cell-based. The settings on record: Mus musculus. The protocol:
FIGS. 4A-4D provide graphs of MGPP3 growth at the indicated concentrations of metformin (FIG. 4A), PAMAM-OH (FIG. 4B), PAMAM-OH and metformin (FIG. 4C), and P4-MET (FIG. 4D).
The ability of the dendrimers was also tested for their ability to deliver metformin to MGPP3 cells, a mouse glioblastoma cell line sensitive to metformin. Specifically, MGPP3 cells were exposed to metformin, PAMAM-OH, PAMAM-OH with metformin, or P4-MET.

The subject of another series is U87MG cells. Kind of series: U87MG cell growth (optical density). It is filed as cell-based. To be noted: Homo sapiens, U-87 MG. The protocol: FIGS. 2A-2D provide graphs of U87MG growth at the indicated concentrations of metformin (FIG. 2A), PAMAM-OH (FIG. 2B), PAMAM-OH and metformin (FIG. 2C), and P4-MET (FIG. 2D).
The ability of the dendrimers was tested for their ability to deliver metformin to U87MG cells, a human glioma cell line sensitive to metformin. Specifically, U87MG cells were exposed to metformin, PAMAM-OH, PAMAM-OH with metformin, or P4-MET.

Consider `CN(C)C(=N)NC(=N)N` [metformin, 1,1-dimethylbiguanide], for which, in series [1], the “pharmacological concentrations in patients” value was “less than 50 μM”. For the same compound, the IC50 (usually the point on the concentration scale where inhibition reaches its midpoint) in the series with Ln229 cells was 0.99 mM; in series [2], 3.53 mM; in the series on Panc-1 cells, 5.24 mM; with UNKPC cells, 1.64 mM; in the series with MGPP3 cells it was 12.5 mM; in the series with U87MG cells, 14.4 mM. Also, in the series on cell cultures, the “typical effective concentration in cell cultures” value is given as “in the mM range”. In addition, the “gastrointestinal-related side effects, share of patients” value in [3] was 20-30%.
